In US20050267166A1, “Continuous dosing regimen” (priority 2004, published 2005):

Key:
WiDr colorectal cancer = experiment: human tumor xenograft in nude mice, WiDr; format: in vivo; details: Q1D × 20, 100 mg/kg/day
[1] = tolerability of continuous 21 day once per day dosing in xenograft mice; format: in vivo, nude mice; details: 50 mg/kg/day
[2] = pharmacokinetics in cancer subjects, single dose and 5-day repeated dose; format: in vivo, human
Description: (2-((4-hydroxyphenyl)amino)pyrid-3-yl)-4-methoxybenzenesulfonamide was evaluated in 57 cancer subjects in single dose (16 subjects) and 5-day repeated dose regimens (41 subjects). The doses administered in the single dose segment were 80 to 480 mg/m^2/day. In the 5-day repeated dose regimen (2-((4-hydroxyphenyl)amino)pyrid-3-yl)-4-methoxybenzenesulfonamide was given at 30 to 240 mg/m^2/day for a single cycle. […] Adverse drug reactions from the single dose and 5-day repeated dose segments included nausea and vomiting, diarrhea, epigastric pain, ileus and evidence of peripheral neuropathy. For the single dose segment, the dose limiting toxicity (DLT) was Grade 3 peripheral neuropathy in 1 of 5 subjects at 480 mg/m^2/day. In the 5-day repeated dose regimen the dose limiting toxicities were Grade 3 peripheral neuropathy in 1 of 4 subjects at 210 mg/m^2/day and Grade 4 intestinal paralysis in 1 of 4 subjects at 210 mg/m^2/day and in 1 of 6 subjects at 240 mg/m^2/day.

[3] = system: NCI-H460 human non-small cell lung carcinoma; experiment: NCI-H460 xenograft model; format: in vivo
Source text: NCI-H460 is a human non-small cell lung carcinoma derived cell line. It is MDR negative, has wild type p53, and contains an oncogenic K-ras mutation.

in vivo = details: mouse, po
H-81 gastric cancer = experiment: human tumor xenograft in nude mice, H-81; format: in vivo; details: Q5D × 5, 300 mg/kg/day
[4] = MTD and safety in the 7-day and 21-day QD regimens in patients; format: in vivo
Description: In the 7-day QD regimen, the 250 mg QD dose has been determined to be the MTD, as dose limiting toxicities of peripheral neuropathy/ileus were reported in 2 of 6 subjects at the 300 mg QD dose.
The tumor types studied were colorectal (23), sarcoma (5), mesothelioma (3), salivary gland (2), endometrial (2), unknown (2), hepatoma (1), melanoma (1), renal cell (1), lung (1), ovary (1), and granulosa cell (1). […] Doses were escalated by 50 mg/day (25 mg twice per day). Three patients were initially treated at each dose level. […] If additional patients experienced dose-limiting toxicity, on occasion the dose level was expanded to nine patients to further assess tolerability. Response assessment was performed every two cycles.

HT-29 colon carcinoma = experiment: HT-29 colon flank xenograft model (staged); format: in vivo, human
Description: Following inoculation of tumor cells, tumors were passaged three times in mice before using the fragments to generate single cell suspensions. Multiple animals were used as donors. Single cell suspensions were generated by homogenizing the minced tumor tissue in RPMI 1640 media. Cell suspensions were washed three times to remove debris and other foreign materials. Viable cells were counted by trypan blue exclusion technique using a hemocytometer. Mice were injected subcutaneously with 0.5 mL of the cell suspension containing 1×10^6 cells.
On day 10, mice bearing established tumors were size matched and grouped at about 236 mm^3.

SC-2 gastric cancer = experiment: human tumor xenograft in nude mice, SC-2; format: in vivo; details: Q1D × 19, 120 mg/kg/day
H-154 gastric cancer = experiment: human tumor xenograft in nude mice, H-154; format: in vivo; details: Q5D × 5, 300 mg/kg/day
MiaPaCa-2 pancreatic = experiment: MiaPaCa-2 orthotopic tumor model; format: in vivo, human; details: for % T/C: orthotopic, d 1-5, 11-15
Source text: (2-((4-hydroxyphenyl)amino)pyrid-3-yl)-4-methoxybenzenesulfonamide inhibited the growth of a variety of human tumor xenografts that were allowed to grow into established tumors prior to the initiation of treatment. As summarized below, activity was seen against established tumors derived from colon, breast and lung carcinomas. (2-((4-hydroxyphenyl)amino)pyrid-3-yl)-4-methoxybenzenesulfonamide was also active against a human pancreatic tumor xenograft grown in the orthotopic site.

LC-376 lung cancer = experiment: human tumor xenograft in nude mice, LC-376; format: in vivo; details: Q5D × 5, 300 mg/kg/day
[5] = oral 75 mg/kg/d QD, d 10-14, 20-24

In the case of COc1ccc(S(=O)(=O)Nc2cccnc2Nc2ccc(O)cc2)cc1 [ABT-751, N-(2-((4-hydroxyphenyl)amino)pyrid-3-yl)-4-methoxybenzenesulfonamide], the “T/C (%)” value (WiDr colorectal cancer) is reported as 22%, the adverse side effects [1] is reported as “essentially without adverse side effects” and the half-life ([2]; human, plasma, cancer subjects, single dose and 5-day repeated dose, read-out: elimination half-life) is reported as 4 to 16 h. The AUC versus dose ([2]; range of 30 to 480 mg/m^2/day) was “increased proportionally with dose”, the “T/C, mean tumor volume” value ([3]; day 13) was 58% and the “ILS (delay in tumor growth)” value ([3]; in vivo) was 32%. For the same compound, the “efficacy in the NCI-H460 xenograft model” value ([3]; in words) was “good efficacy”, the MTD (in vivo) was about 150 mg/kg and the “T/C (%)” value (H-81 gastric cancer) was 40%. For the same compound, the MTD ([4]; 7-day QD regimen) was 250 mg, the MTD ([4]; QD regimen given for 21 days) was 200 mg and the “dose limiting toxicities of fatigue, anorexia and suspect small bowel obstruction, subjects affected” value ([4]; human, in vivo) was “⅔”. The “myelosuppression, renal or hepatic toxicity” value ([4]; human, in vivo) was “no significant”, the “dose limiting toxicities of peripheral neuropathy/ileus, subjects affected” value ([4]; human, in vivo, 7 days) was 2 of 6 and the “antitumor activity as single agent” value (HT-29 colon carcinoma; 100 and 75 mg/kg/day, (5 days on/5 days off)×2) was “significant antitumor activity”. The “response in combination with 5-fluorouracil” value (HT-29 colon carcinoma; in combination with 5-fluorouracil at 30 mg/kg/day, higher doses) was “additive responses”, the “% T/C” value (HT-29 colon carcinoma; oral 50 mg/kg/d QD, d 1-21) was 55% and the “% ILS” value (HT-29 colon carcinoma; [5]) was 50%. For the same compound, the “% T/C” value (HT-29 colon carcinoma; [5]) was 43%, the “% T/C” value (HT-29 colon carcinoma; oral 100 mg/kg/d QD, d 10-14, 20-24) was 28% and the “T/C (%)” value (SC-2 gastric cancer) was 28%. For the same compound, the “T/C (%)” value (H-154 gastric cancer) was 71%, the “antitumor activity in combination with gemcitabine compared to single agent alone” value (MiaPaCa-2 pancreatic; in combination with gemcitabine, MiaPaCa2 pancreatic xenograft) was “increase in antitumor activity” and the “% T/C” value (MiaPaCa-2 pancreatic; oral 75 mg/kg/d QD) was 79%. For the same compound, the “% T/C” value (MiaPaCa-2 pancreatic; oral 100 mg/kg/d QD) was 56% and the “T/C (%)” value (LC-376 lung cancer) was 18%.
